The conditions of series [1]: cited from earlier work.
The target in a further series is WT DaCld (Dechloromonas aromatica, UniProt Q47CX0). As to the kind of experiment: Equilibrium binding of ligands, spectrophotometric titration, WT DaCld.
The target of a further series is DaCld(R183K) (Dechloromonas aromatica, UniProt Q47CX0, R217K). The series can be described thus: biochemical. Format: binding.
A further series concerns the target DaCld(R183Q) (Dechloromonas aromatica, UniProt Q47CX0, R217Q). As to the kind of experiment: biochemical. Format: binding.
Another series has as its target DaCld(R183A) (Dechloromonas aromatica, UniProt Q47CX0, R217A). As to the kind of experiment: biochemical. The class given is binding.

Read-outs that look alike come from different tables or passages of the source.

DaCld(R183A), sequence (Q47CX0 35-282 R217A): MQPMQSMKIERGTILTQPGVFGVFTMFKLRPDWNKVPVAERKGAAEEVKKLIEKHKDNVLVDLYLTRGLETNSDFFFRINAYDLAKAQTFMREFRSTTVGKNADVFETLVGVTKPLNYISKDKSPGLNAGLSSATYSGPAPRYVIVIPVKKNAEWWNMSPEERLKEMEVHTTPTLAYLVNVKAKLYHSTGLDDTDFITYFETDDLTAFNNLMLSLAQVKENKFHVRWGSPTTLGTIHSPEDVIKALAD
WT DaCld, sequence (Q47CX0 32-282): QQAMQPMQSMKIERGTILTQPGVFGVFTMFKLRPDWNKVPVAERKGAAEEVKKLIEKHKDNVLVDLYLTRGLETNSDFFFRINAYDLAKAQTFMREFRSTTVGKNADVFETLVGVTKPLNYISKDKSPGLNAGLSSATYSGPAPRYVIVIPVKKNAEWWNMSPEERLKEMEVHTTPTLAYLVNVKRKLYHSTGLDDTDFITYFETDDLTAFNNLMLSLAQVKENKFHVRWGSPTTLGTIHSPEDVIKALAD
DaCld(R183Q), sequence (Q47CX0 35-282 R217Q): as the sequence (Q47CX0 35-282 R217A) above, with A183Q counted along it
DaCld(R183K), sequence (Q47CX0 35-282 R217K): as the sequence (Q47CX0 35-282 R217A) above, with A183K counted along it

For the molecule Myoglobin, the reduction potential in series [1] is 46 mV.
On to `[N-]=[N+]=[N-]` [N3^–, azide], for which the Kd (commonly a measure of binding affinity in units of concentration) on WT DaCld (read-out: Maximal KD, pH 7) is 8.3 ± 0.1 µM.
Regarding `c1c[nH]cn1` [imidazole], the dissociation constant Kd amounted to 9.6 ± 0.3 µM at WT DaCld, 18 ± 1 µM at DaCld(R183K), 27 ± 1 µM at DaCld(R183Q) and 21 ± 1 µM on DaCld(R183A). The “pKa1 of pKD versus pH curve” value at DaCld(R183Q) came out at 6.7 ± 0.1; at DaCld(R183A), 6.8 ± 0.1.

Source of the values: paper PMC3369218 (Biochemistry, 2012).
